Test results reported in ChEMBL document CHEMBL4507289, “Data for DCP probe GSM1” (2021).

What was measured:
Notch receptor = Notch receptor (Homo sapiens, UniProt P46531+Q9UM47+Q04721+Q99466); experiment: Notch assay; assay type: protein assay
[1] = tested on: Tyrosine-protein kinase ABL1 (Homo sapiens), P00519 [Y253F]; settings: Compound concentration 1000.0 nM
[2] = target: Tyrosine-protein kinase ABL1 (Homo sapiens) (UniProt P00519); settings: Compound concentration 1000.0 nM
[3] = target: Aurora kinase B (Homo sapiens) (UniProt Q96GD4); settings: Compound concentration 1000.0 nM
[4] = target: Tyrosine-protein kinase receptor UFO (Homo sapiens) (UniProt P30530); settings: Compound concentration 1000.0 nM
Sequence of Tyrosine-protein kinase receptor UFO (Homo sapiens) (P30530 whole entry): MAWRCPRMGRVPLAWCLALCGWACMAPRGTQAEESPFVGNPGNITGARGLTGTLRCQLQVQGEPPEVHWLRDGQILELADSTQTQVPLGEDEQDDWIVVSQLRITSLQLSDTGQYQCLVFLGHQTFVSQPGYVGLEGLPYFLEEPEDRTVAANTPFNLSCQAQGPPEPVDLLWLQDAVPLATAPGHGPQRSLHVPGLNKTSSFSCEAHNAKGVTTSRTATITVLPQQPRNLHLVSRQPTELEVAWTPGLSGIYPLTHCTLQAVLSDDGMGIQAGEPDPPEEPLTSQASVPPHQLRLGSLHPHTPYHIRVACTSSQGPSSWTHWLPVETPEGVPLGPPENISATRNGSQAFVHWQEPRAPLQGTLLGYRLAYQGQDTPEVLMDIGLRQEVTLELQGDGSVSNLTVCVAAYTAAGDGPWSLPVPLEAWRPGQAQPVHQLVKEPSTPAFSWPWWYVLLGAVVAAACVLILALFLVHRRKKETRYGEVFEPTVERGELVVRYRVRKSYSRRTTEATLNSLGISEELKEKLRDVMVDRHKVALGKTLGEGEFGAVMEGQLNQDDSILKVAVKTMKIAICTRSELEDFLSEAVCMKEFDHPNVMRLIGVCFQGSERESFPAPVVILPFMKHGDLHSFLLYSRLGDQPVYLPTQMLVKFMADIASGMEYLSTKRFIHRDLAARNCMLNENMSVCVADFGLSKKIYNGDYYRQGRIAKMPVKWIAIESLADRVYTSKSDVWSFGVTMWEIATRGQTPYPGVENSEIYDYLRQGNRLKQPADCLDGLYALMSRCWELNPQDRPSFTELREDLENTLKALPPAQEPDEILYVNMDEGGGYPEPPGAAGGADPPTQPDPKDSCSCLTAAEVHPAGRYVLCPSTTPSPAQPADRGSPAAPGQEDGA

[5] = target: Bone morphogenetic protein receptor type-1B (Homo sapiens) (UniProt O00238); settings: Compound concentration 1000.0 nM
[6] = target: Tyrosine-protein kinase BTK (Homo sapiens) (UniProt Q06187); settings: Compound concentration 1000.0 nM
[7] = target: Calcium/calmodulin-dependent protein kinase type 1G (Homo sapiens) (UniProt Q96NX5); settings: Compound concentration 1000.0 nM
[8] = target: Cyclin-dependent kinase-like 2 (Homo sapiens) (UniProt Q92772); settings: Compound concentration 1000.0 nM
Sequence of Cyclin-dependent kinase-like 2 (Homo sapiens) (Q92772 whole entry): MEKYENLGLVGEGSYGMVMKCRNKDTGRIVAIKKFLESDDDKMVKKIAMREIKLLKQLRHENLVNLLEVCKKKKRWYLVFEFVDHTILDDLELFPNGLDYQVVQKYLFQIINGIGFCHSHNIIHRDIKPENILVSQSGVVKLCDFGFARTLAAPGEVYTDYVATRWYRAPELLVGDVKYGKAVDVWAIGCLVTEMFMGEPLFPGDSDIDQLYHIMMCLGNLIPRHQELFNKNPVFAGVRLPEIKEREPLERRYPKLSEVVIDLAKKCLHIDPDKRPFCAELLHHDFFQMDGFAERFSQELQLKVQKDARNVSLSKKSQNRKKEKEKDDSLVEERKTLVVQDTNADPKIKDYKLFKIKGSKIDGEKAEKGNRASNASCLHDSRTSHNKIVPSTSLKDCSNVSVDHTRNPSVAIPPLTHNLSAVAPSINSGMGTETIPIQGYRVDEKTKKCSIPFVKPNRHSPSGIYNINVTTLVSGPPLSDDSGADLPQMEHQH

[9] = target: Cyclin-dependent kinase-like 5 (Homo sapiens) (UniProt O76039); settings: Compound concentration 1000.0 nM
[10] = target: Serine/threonine-protein kinase 17A (Homo sapiens) (UniProt Q9UEE5); settings: Compound concentration 1000.0 nM
[11] = target: Dual specificity tyrosine-phosphorylation-regulated kinase 2 (Homo sapiens) (UniProt Q92630); settings: Compound concentration 1000.0 nM
[12] = target: Ephrin type-A receptor 5 (Homo sapiens) (UniProt P54756); settings: Compound concentration 1000.0 nM
[13] = target: Ephrin type-A receptor 8 (Homo sapiens) (UniProt P29322); settings: Compound concentration 1000.0 nM
[14] = target: Ephrin type-B receptor 2 (Homo sapiens) (UniProt P29323); settings: Compound concentration 1000.0 nM
[15] = target: Receptor tyrosine-protein kinase erbB-3 (Homo sapiens) (UniProt P21860); settings: Compound concentration 1000.0 nM
[16] = target: Serine/threonine-protein kinase/endoribonuclease IRE1 (Homo sapiens) (UniProt O75460); settings: Compound concentration 1000.0 nM
[17] = target: Receptor-type tyrosine-protein kinase FLT3 (Homo sapiens) (UniProt P36888); settings: Compound concentration 1000.0 nM
[18] = tested on: Receptor-type tyrosine-protein kinase FLT3 (Homo sapiens), P36888 [D835Y]; settings: Compound concentration 1000.0 nM
[19] = tested on: Receptor-type tyrosine-protein kinase FLT3 (Homo sapiens), P36888 [UNDEFINED MUTATION]; settings: Compound concentration 1000.0 nM
[20] = target: Receptor-type tyrosine-protein kinase FLT3 (Homo sapiens) (UniProt P36888); settings: Compound concentration 1000.0 nM; remark: listed apart in the source
[21] = target: Tyrosine-protein kinase HCK (Homo sapiens) (UniProt P08631); settings: Compound concentration 1000.0 nM
Sequence of Tyrosine-protein kinase HCK (Homo sapiens) (P08631 2-526 limits assumed): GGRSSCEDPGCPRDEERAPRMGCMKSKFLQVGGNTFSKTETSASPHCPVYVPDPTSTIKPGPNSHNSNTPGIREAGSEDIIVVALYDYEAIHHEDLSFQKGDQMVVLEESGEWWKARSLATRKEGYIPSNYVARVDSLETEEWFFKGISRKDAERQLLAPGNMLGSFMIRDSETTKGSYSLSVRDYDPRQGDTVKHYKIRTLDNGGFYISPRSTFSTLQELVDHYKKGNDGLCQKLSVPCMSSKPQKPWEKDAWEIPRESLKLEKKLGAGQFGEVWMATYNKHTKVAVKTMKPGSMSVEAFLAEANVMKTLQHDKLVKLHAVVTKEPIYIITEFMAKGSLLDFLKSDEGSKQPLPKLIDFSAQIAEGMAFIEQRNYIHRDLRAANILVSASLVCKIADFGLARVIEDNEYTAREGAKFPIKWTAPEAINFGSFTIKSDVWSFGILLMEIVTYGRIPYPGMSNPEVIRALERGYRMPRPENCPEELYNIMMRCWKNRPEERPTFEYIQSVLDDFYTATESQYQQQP

[22] = target: Hormonally up-regulated neu tumor-associated kinase (Homo sapiens) (UniProt P57058); settings: Compound concentration 1000.0 nM
Sequence of Hormonally up-regulated neu tumor-associated kinase (Homo sapiens) (P57058 whole entry): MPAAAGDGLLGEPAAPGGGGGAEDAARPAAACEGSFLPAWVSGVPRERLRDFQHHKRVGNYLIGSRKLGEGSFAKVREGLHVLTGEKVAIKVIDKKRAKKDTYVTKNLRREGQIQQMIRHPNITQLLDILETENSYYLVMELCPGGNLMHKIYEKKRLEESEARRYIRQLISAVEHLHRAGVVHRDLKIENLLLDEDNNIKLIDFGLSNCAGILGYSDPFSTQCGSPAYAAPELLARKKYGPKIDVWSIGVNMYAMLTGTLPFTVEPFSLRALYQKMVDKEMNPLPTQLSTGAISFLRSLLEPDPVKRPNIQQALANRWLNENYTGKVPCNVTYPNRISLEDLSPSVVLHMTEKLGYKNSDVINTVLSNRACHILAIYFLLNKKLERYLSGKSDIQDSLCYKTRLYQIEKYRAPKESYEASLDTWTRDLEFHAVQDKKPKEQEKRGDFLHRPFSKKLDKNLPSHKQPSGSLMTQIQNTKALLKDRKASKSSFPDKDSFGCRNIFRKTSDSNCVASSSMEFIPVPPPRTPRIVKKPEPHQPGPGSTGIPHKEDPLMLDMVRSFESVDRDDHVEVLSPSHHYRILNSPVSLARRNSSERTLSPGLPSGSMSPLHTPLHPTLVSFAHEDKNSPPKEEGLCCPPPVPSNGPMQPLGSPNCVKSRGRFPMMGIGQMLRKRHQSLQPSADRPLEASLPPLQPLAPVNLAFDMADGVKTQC

[23] = target: Mitogen-activated protein kinase 10 (Homo sapiens) (UniProt P53779); settings: Compound concentration 1000.0 nM
[24] = target: Maternal embryonic leucine zipper kinase (Homo sapiens) (UniProt Q14680); settings: Compound concentration 1000.0 nM
[25] = target: Mitogen-activated protein kinase kinase kinase 10 (Homo sapiens) (UniProt Q02779); settings: Compound concentration 1000.0 nM
Sequence of Mitogen-activated protein kinase kinase kinase 10 (Homo sapiens) (Q02779 whole entry, looked up): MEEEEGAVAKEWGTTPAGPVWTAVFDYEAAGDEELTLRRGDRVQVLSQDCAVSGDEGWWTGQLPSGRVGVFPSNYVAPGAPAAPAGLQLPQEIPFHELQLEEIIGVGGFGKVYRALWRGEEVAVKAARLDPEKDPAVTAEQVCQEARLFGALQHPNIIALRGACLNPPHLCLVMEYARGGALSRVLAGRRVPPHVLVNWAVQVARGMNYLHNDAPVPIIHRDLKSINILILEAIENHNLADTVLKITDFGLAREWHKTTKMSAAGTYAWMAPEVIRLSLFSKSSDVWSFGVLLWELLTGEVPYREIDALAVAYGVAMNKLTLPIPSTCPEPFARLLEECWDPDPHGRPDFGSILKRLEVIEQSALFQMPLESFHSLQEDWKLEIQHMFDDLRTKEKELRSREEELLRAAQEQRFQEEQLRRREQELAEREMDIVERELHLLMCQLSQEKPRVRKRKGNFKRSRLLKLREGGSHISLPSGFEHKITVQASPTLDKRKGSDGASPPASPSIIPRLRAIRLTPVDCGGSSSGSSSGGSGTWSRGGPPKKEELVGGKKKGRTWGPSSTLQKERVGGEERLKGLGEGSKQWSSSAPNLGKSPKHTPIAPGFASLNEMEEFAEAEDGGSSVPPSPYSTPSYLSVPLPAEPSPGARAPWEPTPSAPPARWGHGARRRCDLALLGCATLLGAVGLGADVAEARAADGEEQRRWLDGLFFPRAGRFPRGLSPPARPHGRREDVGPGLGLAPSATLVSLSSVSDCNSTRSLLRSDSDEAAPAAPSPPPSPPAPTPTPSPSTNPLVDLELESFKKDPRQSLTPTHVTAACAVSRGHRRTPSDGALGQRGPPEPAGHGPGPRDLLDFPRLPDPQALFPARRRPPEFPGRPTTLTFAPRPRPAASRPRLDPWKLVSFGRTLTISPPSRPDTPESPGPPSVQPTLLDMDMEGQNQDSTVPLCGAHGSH

[26] = target: Mitogen-activated protein kinase 13 (Homo sapiens) (UniProt O15264); settings: Compound concentration 1000.0 nM
Sequence of Mitogen-activated protein kinase 13 (Homo sapiens) (O15264 whole entry): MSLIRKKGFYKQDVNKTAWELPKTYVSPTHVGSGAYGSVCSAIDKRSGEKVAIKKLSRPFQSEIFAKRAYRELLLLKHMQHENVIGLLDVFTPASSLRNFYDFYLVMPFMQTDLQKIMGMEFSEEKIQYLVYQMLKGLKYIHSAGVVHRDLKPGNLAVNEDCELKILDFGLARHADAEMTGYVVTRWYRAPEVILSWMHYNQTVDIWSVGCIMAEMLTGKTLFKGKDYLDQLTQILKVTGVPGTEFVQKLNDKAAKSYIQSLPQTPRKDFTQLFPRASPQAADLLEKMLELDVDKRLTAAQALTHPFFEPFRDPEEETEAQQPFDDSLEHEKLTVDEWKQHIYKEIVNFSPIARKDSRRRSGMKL

[27] = target: Serine/threonine-protein kinase PAK 2 (Homo sapiens) (UniProt Q13177); settings: Compound concentration 1000.0 nM
[28] = target: Cyclin-dependent kinase 15 (Homo sapiens) (UniProt Q96Q40); settings: Compound concentration 1000.0 nM
[29] = target: Serine/threonine-protein kinase pim-1 (Homo sapiens) (UniProt P11309); settings: Compound concentration 1000.0 nM
[30] = target: Protein kinase C delta type (Homo sapiens) (UniProt Q05655); settings: Compound concentration 1000.0 nM
[31] = target: Serine/threonine-protein kinase D3 (Homo sapiens) (UniProt O94806); settings: Compound concentration 1000.0 nM
[32] = target: cAMP-dependent protein kinase catalytic subunit PRKX (Homo sapiens) (UniProt P51817); settings: Compound concentration 1000.0 nM
Sequence of cAMP-dependent protein kinase catalytic subunit PRKX (Homo sapiens) (P51817 whole entry): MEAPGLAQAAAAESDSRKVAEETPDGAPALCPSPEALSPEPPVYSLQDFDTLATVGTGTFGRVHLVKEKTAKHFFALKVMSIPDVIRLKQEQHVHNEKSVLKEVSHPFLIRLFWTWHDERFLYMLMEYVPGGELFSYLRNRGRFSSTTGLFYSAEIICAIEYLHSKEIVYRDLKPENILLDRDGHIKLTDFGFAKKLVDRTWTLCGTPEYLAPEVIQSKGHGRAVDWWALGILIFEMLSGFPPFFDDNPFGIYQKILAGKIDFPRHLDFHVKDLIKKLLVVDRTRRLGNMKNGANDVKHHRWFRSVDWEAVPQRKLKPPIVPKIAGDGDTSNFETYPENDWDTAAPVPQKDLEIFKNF

[33] = target: Ribosomal protein S6 kinase alpha-4 (Homo sapiens) (UniProt O75676); settings: Compound concentration 1000.0 nM
[34] = target: Ribosomal protein S6 kinase alpha-2 (Homo sapiens) (UniProt Q15349); settings: Compound concentration 1000.0 nM
[35] = target: Serine/threonine-protein kinase Sgk1 (Homo sapiens) (UniProt O00141); settings: Compound concentration 1000.0 nM
[36] = target: Tyrosine-protein kinase Srms (Homo sapiens) (UniProt Q9H3Y6); settings: Compound concentration 1000.0 nM
[37] = target: SRSF protein kinase 2 (Homo sapiens) (UniProt P78362); settings: Compound concentration 1000.0 nM
[38] = target: Testis-specific serine/threonine-protein kinase 3 (Homo sapiens) (UniProt Q96PN8); settings: Compound concentration 1000.0 nM
[39] = target: Serine/threonine-protein kinase 32B (Homo sapiens) (UniProt Q9NY57); settings: Compound concentration 1000.0 nM
[40] = target: Tyrosine-protein kinase ZAP-70 (Homo sapiens) (UniProt P43403); settings: Compound concentration 1000.0 nM
Sequence of Tyrosine-protein kinase ZAP-70 (Homo sapiens) (P43403 whole entry): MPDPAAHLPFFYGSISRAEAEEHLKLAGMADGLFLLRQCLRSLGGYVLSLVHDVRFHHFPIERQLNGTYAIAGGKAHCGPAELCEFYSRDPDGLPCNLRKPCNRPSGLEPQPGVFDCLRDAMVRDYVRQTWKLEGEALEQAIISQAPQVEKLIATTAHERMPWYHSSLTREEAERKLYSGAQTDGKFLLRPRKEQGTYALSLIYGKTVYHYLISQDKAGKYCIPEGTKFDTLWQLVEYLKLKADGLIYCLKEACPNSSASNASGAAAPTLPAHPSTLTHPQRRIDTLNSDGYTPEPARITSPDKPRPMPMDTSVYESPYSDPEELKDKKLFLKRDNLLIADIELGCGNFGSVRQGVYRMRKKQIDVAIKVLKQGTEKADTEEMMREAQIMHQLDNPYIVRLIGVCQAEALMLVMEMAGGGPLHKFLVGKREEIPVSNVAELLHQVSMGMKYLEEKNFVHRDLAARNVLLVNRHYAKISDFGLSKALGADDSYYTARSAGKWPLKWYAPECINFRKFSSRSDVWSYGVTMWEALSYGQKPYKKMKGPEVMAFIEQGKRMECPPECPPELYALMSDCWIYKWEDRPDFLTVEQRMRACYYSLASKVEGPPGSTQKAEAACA

[41] = target: D(1B) dopamine receptor (Homo sapiens) (UniProt P21918); settings: Compound concentration 10.0 uM
[42] = target: GABA-A receptor; anion channel (Rattus norvegicus) (UniProt O09028+P15431+P18506+P18508+P19969+P20236+P23574+P23576+P28471+P28473+P30191+P62813+P63079+P63138+Q91ZM7+Q9ES14); settings: Compound concentration 10.0 uM
[43] = target: Sigma non-opioid intracellular receptor 1 (Homo sapiens) (UniProt Q99720); settings: Compound concentration 10.0 uM

COc1cc(-c2cn([C@H]3CCc4c(F)cccc4N(CC(F)(F)F)C3=O)nn2)ccc1-n1cnc(C)c1
IC50 (Notch receptor): 397.8 µM
residual activity [1]: 100%
residual activity [2]: 94%
residual activity [3]: 100%
residual activity [4]: 98%
residual activity [5]: 100%
residual activity [6]: 100%
residual activity [7]: 100%
residual activity [8]: 67%
residual activity [9]: 91%
residual activity [10]: 100%
residual activity [11]: 100%
residual activity [12]: 100%
residual activity [13]: 100%
residual activity [14]: 100%
residual activity [15]: 98%
residual activity [16]: 100%
residual activity [17]: 89%
residual activity [18]: 86%
residual activity [19]: 100%
residual activity [20]: 100%
residual activity [21]: 100%
residual activity [22]: 100%
residual activity [23]: 72%
residual activity [24]: 100%
residual activity [25]: 100%
residual activity [26]: 100%
residual activity [27]: 91%
residual activity [28]: 100%
residual activity [29]: 96%
residual activity [30]: 100%
residual activity [31]: 100%
residual activity [32]: 100%
residual activity [33]: 100%
residual activity [34]: 100%
residual activity [35]: 90%
residual activity [36]: 100%
residual activity [37]: 100%
residual activity [38]: 97%
residual activity [39]: 100%
residual activity [40]: 100%
inhibition [41]: -8.33%
inhibition [42]: 22.6%
inhibition [43]: 26.6%

COc1cc(-c2cn([C@H]3CCc4ccccc4N(CC(F)(F)F)C3=O)nn2)ccc1-n1ccc(C)n1
IC50 (Notch receptor): > 50 µM
residual activity [1]: 87%
residual activity [2]: 78%
residual activity [3]: 89%
residual activity [4]: 93%
residual activity [5]: 100%
residual activity [6]: 82%
residual activity [7]: 100%
residual activity [8]: 91%
residual activity [9]: 87%
residual activity [10]: 100%
residual activity [11]: 94%
residual activity [12]: 100%
residual activity [13]: 100%
residual activity [14]: 100%
residual activity [15]: 77%
residual activity [16]: 86%
residual activity [17]: 85%
residual activity [18]: 92%
residual activity [19]: 99%
residual activity [20]: 89%
residual activity [21]: 100%
residual activity [22]: 100%
residual activity [23]: 61%
residual activity [24]: 96%
residual activity [25]: 96%
residual activity [26]: 88%
residual activity [27]: 100%
residual activity [28]: 100%
residual activity [29]: 100%
residual activity [30]: 98%
residual activity [31]: 100%
residual activity [32]: 95%
residual activity [33]: 78%
residual activity [34]: 100%
residual activity [35]: 88%
residual activity [36]: 84%
residual activity [37]: 81%
residual activity [38]: 100%
residual activity [39]: 85%
residual activity [40]: 82%
inhibition [41]: 20.1%
inhibition [42]: -6.73%
inhibition [43]: 23.2%
